For one assay, the system named is p-ERK (AsPC-1 cells). Kind of assay: Phospho-ERK1/2 MSD Assay. In kind it is cell-based. The procedure: Sixteen hours prior to compound treatment, AsPC-1 cells were seeded in 96-well cell culture plates at a density of 25,000 cells/well and incubated at 37° C., 5% CO2. A compound dose-response titration was diluted in growth media, added to appropriate wells of a cell culture plate, and then incubated at 37° C., 5% CO2 for 2 hours. […] Phosphorylation of ERK1/2 in compound-treated lysates was assayed using Phospho-ERK1/2 Whole Cell Lysate kits (Meso Scale Discovery K151DWD) according to the manufacturer's protocol. Assay plates were read on a Meso Scale Discovery Sector Imager 6000, and data were analyzed using a 4-parameter logistic model to calculate IC50 values.

For assay [1], the target named is KRAS G12D (Homo sapiens, UniProt P01116, G12D). Description: KRAS G12D TR-FRET Assay. To be noted: His-tagged KRAS G12D, biotinylated KRPep-2d, read-out: KRAS G12D Binding IC50. As for the experimental part: The plate was incubated for 30 minutes at room temperature. Biotinylated KRPep-2d substrate (Amgen) was diluted to 20 nM in Assay Buffer and 2 uL was added to all wells and incubated for 1 hour at room temperature. Detection Reagent (0.4 nM LANCE Eu-W1024 Anti-6×His (Perkin Elmer AD0401), 5 nM streptavidin-d2 (Cisbio 610SADLA)) was prepared in Assay Buffer, then 4 μL was added to the plate and incubated for 1 hour at room temperature.
(In general: Time-resolved FRET reads energy transfer from a long-lived donor to a nearby acceptor.)

In assay [2] the target is KRAS G12D (Homo sapiens, UniProt P01116, C118A/G12D). Description: KRAS G12D Coupled Nucleotide Exchange Assay. In kind it is biochemical. To be noted: GDP-bound KRAS G12D/C118A, 2 hours pre-incubation, SOS-mediated nucleotide exchange, AlphaScreen. As for the experimental part:
The assay plates were then read on a PerkinElmer EnVision Multilabel Reader, using AlphaScreen® technology, and data were analyzed using a 4-parameter logistic model to calculate IC50 values.

Setting [3] is: Homo sapiens, ASPC1, 2 h, read-out: 2 h p-ERK (AsPC-1 cells), IC50 (μM), AsPC-1 cells, 2 hours compound treatment.
Where [4] appears, read: read-out: 2 h p-ERK (AsPC-1 cells), IC50, AsPC-1 cells, 2 hours compound treatment.

Like-named read-outs stand apart in the source and are kept apart here.

Sequence of KRAS G12D (Homo sapiens, UniProt P01116, C118A/G12D) (P01116 1-169 isoform P01116-2 G12D/C118A): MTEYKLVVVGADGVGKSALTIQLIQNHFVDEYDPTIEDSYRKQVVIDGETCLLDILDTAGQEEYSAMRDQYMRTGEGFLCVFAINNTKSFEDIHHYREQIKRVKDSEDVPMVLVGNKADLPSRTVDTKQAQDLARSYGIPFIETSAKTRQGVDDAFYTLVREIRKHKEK
Sequence of KRAS G12D (Homo sapiens, UniProt P01116, G12D) (P01116 1-188 isoform P01116-2 G12D): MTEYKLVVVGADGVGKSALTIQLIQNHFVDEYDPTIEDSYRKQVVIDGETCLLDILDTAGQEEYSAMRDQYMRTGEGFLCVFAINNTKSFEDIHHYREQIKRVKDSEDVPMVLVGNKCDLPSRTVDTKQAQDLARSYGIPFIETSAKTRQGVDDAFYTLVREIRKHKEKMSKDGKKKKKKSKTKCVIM

For orientation: IC50 means the midpoint of a concentration-inhibition curve. For `CCc1c(F)ccc2cc(O)cc(-c3ncc4c(N5CCC6(CC5)COC(=O)N6)nc(OC[C@@]56CCCN5C[C@H](F)C6)nc4c3F)c12` [Example 42, 8-(7-(8-Ethyl-7-fluoro-3-hydroxynaphthalen-1-yl)-8-fluoro-2-(((2R,7aS)-2-fluorotetrahydro-1H-pyrrolizin-7a(5H)-yl)methoxy)pyrido[4,3-d]pyrimidin-4-yl)-3-oxa-1,8-diazaspiro[4.5]decan-2-one], the 50% inhibitory concentration (IC50) stood at 3.18 µM in the assay on p-ERK (AsPC-1 cells) (setting [3]), 7 nM on KRAS G12D [1] and 5 nM at KRAS G12D [2].
The matching figures for `CCc1c(F)ccc2cc(O)cc(-c3ncc4c(N5CC(O)CC6(CC6)C5)nc(OC[C@@]56CCCN5C[C@H](F)C6)nc4c3F)c12` (single isomer, unassigned) [Example 3]: 0.034 µM, 1 nM and 2 nM.
On to `Oc1cc(-c2ncc3c(N4CCCC5(CC(O)C5)C4)nc(OC[C@@]45CCCN4C[C@H](F)C5)nc3c2F)c2c(F)c(F)ccc2c1` (single isomer, unassigned) [Example 11], for which the figures for the half-inhibitory concentration (IC50) in the assay on p-ERK (AsPC-1 cells) (setting [3]), at KRAS G12D [1] and on KRAS G12D [2] were 0.119 µM, 2 nM and 2 nM, respectively.
Turning to `CCc1c(F)ccc2cc(O)cc(-c3ncc4c(N5CCCC6(CCS(=O)(=O)C6)C5)nc(OC[C@@]56CCCN5C[C@H](F)C6)nc4c3F)c12` (single isomer, unassigned) [Example 35], the IC50 in the assay with p-ERK (AsPC-1 cells) (setting [4]) was determined as 0.06 µM; on KRAS G12D [1], 2 nM; against KRAS G12D [2] it was 3 nM.
Take `Oc1cc(Cl)c(C2CC2)c(-c2ncc3c(N4CCCC5(CC(O)C5)C4)nc(OC[C@@]45CCCN4C[C@H](F)C5)nc3c2F)c1` (single isomer, unassigned) [Example 14]: the IC50 worked out at 0.164 µM in the assay with p-ERK (AsPC-1 cells) (setting [3]), 1 nM at KRAS G12D [1] and 1 nM against KRAS G12D [2].
`CCc1c(F)ccc2cc(O)cc(-c3ncc4c(N5CCCC6(C5)CC6(F)F)nc(OC[C@@]56CCCN5C[C@H](F)C6)nc4c3F)c12` (stereo partly drawn) [Example 44, 4-(4-(1,1-Difluoro-5-azaspiro[2.5]octan-5-yl)-8-fluoro-2-(((2R,7aS)-2-fluorotetrahydro-1H-pyrrolizin-7a(5H)-yl)methoxy)pyrido[4,3-d]pyrimidin-7-yl)-5-ethyl-6-fluoronaphthalen-2-ol]: the IC50 in the assay with p-ERK (AsPC-1 cells) (setting [3]) worked out at 0.252 µM; at KRAS G12D [1] it was 3 nM; against KRAS G12D [2], 3 nM.
In the case of `CCc1c(F)ccc2cc(O)cc(-c3ncc4c(N5CCCC6(CC(=O)N6)C5)nc(OC[C@@]56CCCN5C[C@H](F)C6)nc4c3F)c12` (single isomer, unassigned) [Example 10], the figures for the 50% inhibitory concentration (IC50) in the assay with p-ERK (AsPC-1 cells) (setting [4]), on KRAS G12D [1] and at KRAS G12D [2] were 0.044 µM, 1 nM and 2 nM, respectively.
For the compound `CCc1c(F)ccc2cc(O)cc(-c3ncc4c(N5CCCC6(CCO6)C5)nc(OC[C@@]56CCCN5C[C@H](F)C6)nc4c3C)c12` (single isomer, unassigned) [Example 61], the IC50 in the assay on p-ERK (AsPC-1 cells) (setting [3]) is 0.007 µM; on KRAS G12D [1], 10 nM; against KRAS G12D [2], 4 nM.
Take `CCc1c(F)ccc2cc(O)cc(-c3ncc4c(N5CCCC6(CCC6O)C5)nc(OC[C@@]56CCCN5C[C@H](F)C6)nc4c3F)c12` (single isomer, unassigned) [Example 49]: the values for the concentration for half-maximal inhibition (IC50) in the assay on p-ERK (AsPC-1 cells) (setting [3]), on KRAS G12D [1] and against KRAS G12D [2] were 0.576 µM, 7 nM and 13 nM, respectively.
The matching figures for `CCc1c(F)ccc2cc(O)cc(-c3ncc4c(N5CCCC6(CCC(=O)N6)C5)nc(OC[C@@]56CCCN5C[C@H](F)C6)nc4c3F)c12` (stereo partly drawn) [Example 28, 7-(7-(8-Ethyl-7-fluoro-3-hydroxynaphthalen-1-yl)-8-fluoro-2-(((2R,7aS)-2-fluorotetrahydro-1H-pyrrolizin-7a(5H)-yl)methoxy)pyrido[4,3-d]pyrimidin-4-yl)-1,7-diazaspiro[4.5]decan-2-one]: 0.923 µM, 3 nM and 5 nM.
For `CCc1c(F)ccc2cc(O)cc(-c3ncc4c(N5CCC6(CC(O)C6)C5)nc(OC[C@@]56CCCN5C[C@H](F)C6)nc4c3F)c12` (stereo partly drawn) [Example 37, 6-(7-(8-Ethyl-7-fluoro-3-hydroxynaphthalen-1-yl)-8-fluoro-2-(((2R,7aS)-2-fluorotetrahydro-1H-pyrrolizin-7a(5H)-yl)methoxy)pyrido[4,3-d]pyrimidin-4-yl)-6-azaspiro[3.4]octan-2-ol], the concentration for half-maximal inhibition (IC50) in the assay with p-ERK (AsPC-1 cells) (setting [3]) stood at 2.53 µM; on KRAS G12D [1], 85 nM; on KRAS G12D [2], 38 nM.
As for `CCc1cccc2cc(O)cc(-c3ncc4c(N5CCCC6(CC(O)C6)C5)nc(OC[C@@]56CCCN5C[C@H](F)C6)nc4c3F)c12` (single isomer, unassigned) [Example 13], the IC50 in the assay with p-ERK (AsPC-1 cells) (setting [3]) is 0.022 µM; at KRAS G12D [1], 2 nM; on KRAS G12D [2], 1 nM.
The matching figures for `C#Cc1c(F)ccc2cc(O)cc(-c3ncc4c(N5CCCC6(CCO6)C5)nc(OC[C@@]56CCCN5C[C@H](F)C6)nc4c3F)c12` (single isomer, unassigned) [Example 25]: 0.043 µM, 1 nM and 1 nM.
As to `C#Cc1c(F)ccc2cc(O)cc(-c3ncc4c(N5CCCC6(CNC(=O)O6)C5)nc(OC[C@@]56CCCN5C[C@H](F)C6)nc4c3F)c12` (single isomer, unassigned) [Example 17], the IC50 is 0.123 µM in the assay with p-ERK (AsPC-1 cells) (setting [3]), 1 nM at KRAS G12D [1] and 1 nM against KRAS G12D [2].
As to `CCc1c(F)ccc2cc(O)cc(-c3ncc4c(N5CC(O)CC6(CCC6)C5)nc(OC[C@@]56CCCN5C[C@H](F)C6)nc4c3F)c12` (stereo partly drawn) [Example 1, 6-(7-(8-Ethyl-7-fluoro-3-hydroxynaphthalen-1-yl)-8-fluoro-2-(((2R,7aS)-2-fluorotetrahydro-1H-pyrrolizin-7a(5H)-yl)methoxy)pyrido[4,3-d]pyrimidin-4-yl)-6-azaspiro[3.5]nonan-8-ol], the concentration for half-maximal inhibition (IC50) with p-ERK (AsPC-1 cells) (setting [3]) turned out to be 0.329 µM; at KRAS G12D [1], 3 nM; against KRAS G12D [2] it was 4 nM.
As for `CCc1c(F)ccc2cc(O)cc(-c3ncc4c(N5CCCC6(CCS(=O)(=O)C6)C5)nc(OC[C@@]56CCCN5C[C@H](F)C6)nc4c3F)c12` (single isomer, unassigned) [Example 34], the values for the IC50 with p-ERK (AsPC-1 cells) (setting [4]), on KRAS G12D [1] and on KRAS G12D [2] were 2.19 µM, 9 nM and 12 nM, respectively.
Regarding `CCc1c(F)ccc2cc(O)cc(-c3ncc4c(N5CCCC6(CNC(=O)C6)C5)nc(OC[C@@]56CCCN5C[C@H](F)C6)nc4c3F)c12` (single isomer, unassigned) [Example 8], the IC50 worked out at 0.252 µM in the assay on p-ERK (AsPC-1 cells) (setting [3]), 2 nM on KRAS G12D [1] and 4 nM at KRAS G12D [2].
As to `CCc1c(F)ccc2cc(O)cc(-c3ncc4c(N5CCCC6(CCO6)C5)nc(OC[C@@H]5C[C@@H](F)CN5C)nc4c3F)c12` (single isomer, unassigned) [Example 60], the IC50 in the assay on p-ERK (AsPC-1 cells) (setting [3]) was found to be 0.019 µM; on KRAS G12D [1] it was 6 nM; on KRAS G12D [2] it was 3 nM.
The matching figures for `CCc1cccc2cc(O)cc(-c3ncc4c(N5CCCC6(CCO6)C5)nc(OC[C@@]56CCCN5C[C@H](F)C6)nc4c3F)c12` (single isomer, unassigned) [Example 23]: 0.011 µM, 2 nM and 3 nM.
As for `CCc1c(F)ccc2cc(O)cc(-c3ncc4c(N5CCCC6(CCC(=O)O6)C5)nc(OC[C@@]56CCCN5C[C@H](F)C6)nc4c3F)c12` (single isomer, unassigned) [Example 66], the 50% inhibitory concentration (IC50) in the assay on p-ERK (AsPC-1 cells) (setting [3]) was 0.03 µM; at KRAS G12D [1], 3 nM; against KRAS G12D [2] it was 1 nM.
As for `C#Cc1c(F)ccc2cc(O)cc(-c3ncc4c(N5CCCC6(CCS(=O)(=O)C6)C5)nc(OC[C@@]56CCCN5C[C@H](F)C6)nc4c3F)c12` (single isomer, unassigned) [Example 36], the IC50 with p-ERK (AsPC-1 cells) (setting [3]) worked out at 1.11 µM; on KRAS G12D [1], 2 nM; against KRAS G12D [2] it was 2 nM.
Take `CCc1c(F)ccc2cc(O)cc(-c3ncc4c(N5CCCC6(COC(=O)O6)C5)nc(OC[C@@]56CCCN5C[C@H](F)C6)nc4c3F)c12` (single isomer, unassigned) [Example 67]: the values for the concentration for half-maximal inhibition (IC50) in the assay with p-ERK (AsPC-1 cells) (setting [4]), on KRAS G12D [1] and at KRAS G12D [2] were 0.06 µM, 4 nM and 2 nM, respectively.

(Values after patent publication US20240417412A1, “HETEROCYCLIC COMPOUNDS AND METHODS OF USE” (AMGEN INC., priority 2022, published 2024).)
